Data as given in publication PMC8740163, “Voltage-Gated Sodium Channel Modulation by a New Spider Toxin Ssp1a Isolated From an Australian Theraphosid” (Frontiers in Pharmacology, 2021).

Experiments:
[1] = biological target: hNaV1.7 (Homo sapiens, UniProt Q15858); assay type: cell-based
[2] = system: hNaV1.1, 1.2, 1.6, 1.7, 1.3; conditions: ref Gonçalves et al., 2018, cited from earlier work

Sequence of hNaV1.7 (Q07699 19-218): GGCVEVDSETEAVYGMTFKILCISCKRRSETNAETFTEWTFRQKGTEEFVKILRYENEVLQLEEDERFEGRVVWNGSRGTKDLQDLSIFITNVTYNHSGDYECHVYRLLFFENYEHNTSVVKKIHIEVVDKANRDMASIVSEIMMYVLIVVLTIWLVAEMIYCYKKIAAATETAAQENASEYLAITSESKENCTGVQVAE
Sequence of hNaV1.7 (Q15858 whole entry): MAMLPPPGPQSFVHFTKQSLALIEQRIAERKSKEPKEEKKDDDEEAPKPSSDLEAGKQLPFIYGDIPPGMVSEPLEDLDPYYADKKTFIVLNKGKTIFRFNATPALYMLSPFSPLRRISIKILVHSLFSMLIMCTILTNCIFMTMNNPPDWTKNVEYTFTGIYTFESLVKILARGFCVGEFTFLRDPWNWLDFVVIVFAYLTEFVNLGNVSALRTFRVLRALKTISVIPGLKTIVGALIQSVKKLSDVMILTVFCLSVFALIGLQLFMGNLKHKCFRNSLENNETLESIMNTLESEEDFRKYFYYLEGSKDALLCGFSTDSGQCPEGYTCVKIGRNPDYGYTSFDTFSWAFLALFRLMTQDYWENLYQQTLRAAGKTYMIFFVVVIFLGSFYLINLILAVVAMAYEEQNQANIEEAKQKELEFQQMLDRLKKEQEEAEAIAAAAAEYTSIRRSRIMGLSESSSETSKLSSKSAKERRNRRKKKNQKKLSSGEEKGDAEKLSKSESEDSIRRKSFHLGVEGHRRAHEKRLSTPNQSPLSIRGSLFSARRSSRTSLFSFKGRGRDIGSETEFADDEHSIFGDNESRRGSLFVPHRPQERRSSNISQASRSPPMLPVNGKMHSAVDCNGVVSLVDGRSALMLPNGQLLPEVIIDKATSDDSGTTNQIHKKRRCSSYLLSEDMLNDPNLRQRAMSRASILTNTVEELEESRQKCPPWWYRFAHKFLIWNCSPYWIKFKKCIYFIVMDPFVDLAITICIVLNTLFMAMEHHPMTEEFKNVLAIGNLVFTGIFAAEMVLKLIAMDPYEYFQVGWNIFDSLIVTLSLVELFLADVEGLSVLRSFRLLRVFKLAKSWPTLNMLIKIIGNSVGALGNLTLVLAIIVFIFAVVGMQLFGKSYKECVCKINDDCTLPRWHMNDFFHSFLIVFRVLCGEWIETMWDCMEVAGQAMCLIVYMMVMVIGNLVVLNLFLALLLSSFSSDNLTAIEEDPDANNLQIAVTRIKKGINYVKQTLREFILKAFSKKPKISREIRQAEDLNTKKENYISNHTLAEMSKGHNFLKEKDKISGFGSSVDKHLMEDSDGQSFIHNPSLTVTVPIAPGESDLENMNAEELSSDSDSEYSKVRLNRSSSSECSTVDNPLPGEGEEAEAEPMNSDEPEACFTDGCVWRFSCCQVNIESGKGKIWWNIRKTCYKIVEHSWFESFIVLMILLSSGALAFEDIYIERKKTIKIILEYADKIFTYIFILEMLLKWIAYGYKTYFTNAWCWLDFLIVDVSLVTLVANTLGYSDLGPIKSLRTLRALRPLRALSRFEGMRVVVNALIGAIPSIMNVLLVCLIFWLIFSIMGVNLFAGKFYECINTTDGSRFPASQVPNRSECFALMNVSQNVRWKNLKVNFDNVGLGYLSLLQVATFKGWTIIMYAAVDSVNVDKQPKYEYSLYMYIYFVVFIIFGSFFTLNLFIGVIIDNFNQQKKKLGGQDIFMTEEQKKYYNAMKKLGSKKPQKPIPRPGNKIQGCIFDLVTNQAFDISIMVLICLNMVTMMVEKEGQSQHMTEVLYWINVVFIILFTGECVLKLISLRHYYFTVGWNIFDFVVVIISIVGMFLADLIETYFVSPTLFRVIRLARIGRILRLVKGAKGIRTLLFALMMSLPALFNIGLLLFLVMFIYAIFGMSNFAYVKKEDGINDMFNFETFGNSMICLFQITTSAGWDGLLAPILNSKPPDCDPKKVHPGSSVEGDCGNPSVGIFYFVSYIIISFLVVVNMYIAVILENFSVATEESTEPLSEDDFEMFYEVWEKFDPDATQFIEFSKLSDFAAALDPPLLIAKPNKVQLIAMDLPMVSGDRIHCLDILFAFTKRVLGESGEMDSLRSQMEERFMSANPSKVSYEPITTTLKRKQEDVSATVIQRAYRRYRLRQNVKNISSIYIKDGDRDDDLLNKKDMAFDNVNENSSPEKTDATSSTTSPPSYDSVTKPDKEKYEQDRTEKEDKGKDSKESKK

NC1=N[C@H](O)[C@H]2[C@H]3O[C@]4(O)O[C@@H]([C@@H](O)[C@@]2(N1)[C@@H]4O)[C@]3(O)CO [Tetrodotoxin (TTX), Tetrodotoxin]
inhibition of veratridine + OD1 activated responses [1]: fully inhibited

HwTx-IV: NaSpTx1 family spider toxin, 40% sequence identity with Ssp1a
IC50 ([2]; range over hNaV1.1, 1.2, 1.6, 1.7, 1.3, read-out: IC50 at five hNaV subtypes): 41 to 190 nM | rank order of potency [2]: hNaV1.1 > 1.2 > 1.6 > 1.7 > 1.3
